Key:
[1] = test system: giant foxtail; assay: Test A pre-/postemergence herbicide test; format: in vivo, Setaria faberi
In short: (§1)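 Pre: seeded sandy loam, directed soil spray, compound in non-phytotoxic solvent + surfactant. Post: 1–2-leaf plants (2–10 cm), sprayed to runoff. Greenhouse ~10 d; visual injury vs untreated, 0–100 scale.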

[2] = test system: ducksalad; assay: Test B flooded paddy test; format: in vivo, Heteranthera limosa; conditions: 1000 g ai/ha, visual rating, scale 0 to 100 (0 no effect, 100 complete control), 13 to 15 days
In short: (§2)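 Each value is a visual 0–100 response rating taken against controls 13 to 15 days after treatment in the greenhouse. Plants received formulated chemical postemergence at the 1- to 4-leaf stage or, in flooded paddy, at the 2-leaf stage.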

[3] = test system: cocklebur; assay: Test C pre-/postemergence herbicide test; format: in vivo, Xanthium strumarium; conditions: for Cocklebur plant response rating: 500 g ai/ha
In short: (§3)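 Visual injury scores run from 0 (no effect) to 100 (complete control), assessed relative to untreated controls 12 to 14 days after treatment in the greenhouse. Chemicals were formulated in a non-phytotoxic solvent mixture with surfactant and applied to soil after planting or to emerged plants at the 1- to 4-leaf stage.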

[4] = test system: barnyardgrass; assay: Test A pre-/postemergence herbicide test; format: in vivo, Echinochloa crus-galli
In short: as §1

[5] = test system: blackgrass; assay: Test B postemergence herbicide test; format: in vivo, Alopecurus myosuroides; conditions: scale 0 (no effect) to 100 (complete control); for Plant response rating, Blackgrass: Postemergence, 500 g ai/ha, visual rating after 13 to 15 days; for Blackgrass plant response rating: postemergence, 125 g ai/ha, visual rating
In short: as §2

[6] = test system: large crabgrass; assay: Test A pre-/postemergence herbicide test; format: in vivo, Digitaria sanguinalis
In short: as §1

[7] = test system: corn; assay: Test C pre-/postemergence herbicide test; format: in vivo, Zea mays; conditions: for Corn plant response rating: 500 g ai/ha
In short: as §3

[8] = test system: woolly cupgrass; assay: Test C pre-/postemergence herbicide test; format: in vivo, Eriochloa villosa; conditions: for Cupgrass, Woolly plant response rating: 500 g ai/ha
In short: as §3

[9] = test system: common (oilseed) sunflower; assay: Test C pre-/postemergence herbicide test; format: in vivo, Helianthus annuus; conditions: for Plant response rating (0 = no effect, 100 = complete control), Sunflower: 62 g ai/ha; for Plant response rating (0 = no effect, 100 = complete control), Sunflower / Plant response rating, Sunflower: preemergence; for Plant response rating, Sunflower: visual, 12 to 14 days; for Sunflower plant response rating: Preemergence, 500 g ai/ha, scale 0 to 100, 0 no effect, 100 complete control
In short: as §3

[10] = test system: ducksalad; assay: Test C flooded paddy test; format: in vivo, Heteranthera limosa; conditions: for Plant response rating, Ducksalad: 500 g ai/ha, visual rating after 12 to 14 days
[11] = Postemergence, 500 g ai/ha, 0 to 100 scale, 0 no effect, 100 complete control
[12] = Postemergence, 2000 g ai/ha, 0 to 100 scale, 0 no effect, 100 complete control
[13] = Preemergence, 500 g ai/ha, visual rating, 0 to 100 scale (0 no effect, 100 complete control)
[14] = Preemergence, 2000 g ai/ha, 0 to 100 scale, 0 no effect, 100 complete control
[15] = 125 g ai/ha, scale 0 (no effect) to 100 (complete control), visual, 12 to 14 days, preemergence
[16] = 250 g ai/ha, scale 0 to 100 (0 no effect, 100 complete control), visual, 12 to 14 days, preemergence
[17] = Postemergence, 125 g ai/ha, scale 0 to 100, 0 no effect, 100 complete control
[18] = Postemergence, 250 g ai/ha, scale 0 to 100, 0 no effect, 100 complete control
[19] = Preemergence, scale 0 to 100, 0 no effect, 100 complete control
[20] = postemergence, 62 g ai/ha, scale 0 to 100
[21] = 125 g ai/ha, scale 0 (no effect) to 100 (complete control)
[22] = 62 g ai/ha, scale 0 to 100 (0 no effect, 100 complete control)
[23] = 125 g ai/ha, scale of 0 to 100, 0 is no effect, 100 is complete control
[24] = 250 g ai/ha, scale of 0 to 100, 0 is no effect, 100 is complete control
[25] = scale 0 to 100 (0 no effect, 100 complete control)
[26] = postemergence, 125 g ai/ha, scale 0 to 100

SMILES: CCNC(=O)c1cc(NC(=O)c2cc(C(C)(C)C)nn2CC)ccc1F [Compound 58]
- Plant response rating, Foxtail, Giant [1, 11]: 45
- Plant response rating, Foxtail, Giant [1, 12]: 60
- Foxtail, Giant plant response rating [1, 13]: 85
- Foxtail, Giant plant response rating [1, 14]: 95
- Ducksalad plant response rating [2]: 80
- Plant response rating (0 = no effect, 100 = complete control), Cocklebur ([3]; 62 g ai/ha, preemergence): 0
- Plant response rating, Cocklebur [3, 15]: 5
- Plant response rating, Cocklebur [3, 16]: 10
- Cocklebur plant response rating ([3]; Postemergence, scale 0 to 100): 50
- Plant response rating, Cocklebur [3, 17]: 20
- Plant response rating, Cocklebur [3, 18]: 20
- Cocklebur plant response rating [3, 19]: 30
- Plant response rating, Cocklebur [3, 20]: 15
- Plant response rating, Barnyardgrass [4, 11]: 70
- Plant response rating, Barnyardgrass [4, 12]: 80
- Barnyardgrass plant response rating [4, 13]: 65
- Barnyardgrass plant response rating [4, 14]: 75
- Plant response rating, Blackgrass [5]: 30
- Blackgrass plant response rating [5]: 10
- Plant response rating, Crabgrass, Large [6, 11]: 40
- Plant response rating, Crabgrass, Large [6, 12]: 75
- Crabgrass, Large plant response rating [6, 13]: 70
- Crabgrass, Large plant response rating [6, 14]: 95
- Plant response rating (0 = no effect, 100 = complete control), Corn ([7]; 62 g ai/ha, preemergence): 0
- Plant response rating, Corn [7, 15]: 0
- Plant response rating, Corn [7, 16]: 0
- Corn plant response rating ([7]; Postemergence, scale 0 to 100): 15
- Plant response rating, Corn [7, 17]: 5
- Plant response rating, Corn [7, 18]: 5
- Corn plant response rating [7, 19]: 0
- Plant response rating, Corn [7, 20]: 0
- Plant response rating (0 = no effect, 100 = complete control), Cupgrass, Woolly ([8]; 62 g ai/ha, preemergence): 0
- Plant response rating, Cupgrass, Woolly [8, 15]: 40
- Plant response rating, Cupgrass, Woolly [8, 16]: 60
- Cupgrass, Woolly plant response rating ([8]; Postemergence, scale 0 to 100): 20
- Plant response rating, Cupgrass, Woolly [8, 17]: 5
- Plant response rating, Cupgrass, Woolly [8, 18]: 20
- Cupgrass, Woolly plant response rating [8, 19]: 80
- Plant response rating, Cupgrass, Woolly [8, 20]: 5
- Plant response rating (0 = no effect, 100 = complete control), Sunflower [9]: 0
- Plant response rating, Sunflower [9, 21]: 0
- Plant response rating, Sunflower ([9]; 250 g ai/ha, scale 0 to 100 (0 no effect, 100 complete control)): 0
- Sunflower plant response rating [9]: 0
- Ducksalad plant response rating [10, 22]: 0
- Ducksalad plant response rating [10, 23]: 15
- Ducksalad plant response rating [10, 24]: 20
- Plant response rating, Ducksalad [10, 25]: 60

SMILES: CCOC(=O)c1cc(NC(=O)c2cc(C(C)(C)C)nn2CC)ccc1OC [Compound 96]
- Foxtail, Giant plant response rating [1, 11]: 60
- Plant response rating, Foxtail, Giant [1, 12]: 80
- Foxtail, Giant plant response rating [1, 13]: 75
- Foxtail, Giant plant response rating [1, 14]: 95
- Ducksalad plant response rating [2]: 90
- Plant response rating (0 = no effect, 100 = complete control), Cocklebur ([3]; 62 g ai/ha, preemergence): 0
- Plant response rating, Cocklebur [3, 15]: 5
- Plant response rating, Cocklebur [3, 16]: 20
- Cocklebur plant response rating ([3]; Postemergence, scale 0 to 100): 95
- Plant response rating, Cocklebur [3, 18]: 90
- Cocklebur plant response rating [3, 19]: 90
- Plant response rating, Cocklebur [3, 26]: 10
- Plant response rating, Cocklebur [3, 20]: 5
- Barnyardgrass plant response rating [4, 11]: 60
- Plant response rating, Barnyardgrass [4, 12]: 80
- Barnyardgrass plant response rating [4, 13]: 70
- Barnyardgrass plant response rating [4, 14]: 90
- Plant response rating, Blackgrass [5]: 20
- Blackgrass plant response rating [5]: 0
- Crabgrass, Large plant response rating [6, 11]: 30
- Plant response rating, Crabgrass, Large [6, 12]: 70
- Crabgrass, Large plant response rating [6, 13]: 80
- Crabgrass, Large plant response rating [6, 14]: 100
- Plant response rating (0 = no effect, 100 = complete control), Corn ([7]; 62 g ai/ha, preemergence): 15
- Plant response rating, Corn [7, 15]: 15
- Plant response rating, Corn [7, 16]: 30
- Corn plant response rating ([7]; Postemergence, scale 0 to 100): 45
- Plant response rating, Corn [7, 18]: 35
- Corn plant response rating [7, 19]: 40
- Plant response rating, Corn [7, 26]: 30
- Plant response rating, Corn [7, 20]: 30
- Plant response rating (0 = no effect, 100 = complete control), Cupgrass, Woolly ([8]; 62 g ai/ha, preemergence): 5
- Plant response rating, Cupgrass, Woolly [8, 15]: 10
- Plant response rating, Cupgrass, Woolly [8, 16]: 20
- Cupgrass, Woolly plant response rating ([8]; Postemergence, scale 0 to 100): 50
- Plant response rating, Cupgrass, Woolly [8, 18]: 30
- Cupgrass, Woolly plant response rating [8, 19]: 70
- Plant response rating, Cupgrass, Woolly [8, 26]: 30
- Plant response rating, Cupgrass, Woolly [8, 20]: 5
- Plant response rating (0 = no effect, 100 = complete control), Sunflower [9]: 0
- Plant response rating, Sunflower [9, 21]: 0
- Sunflower plant response rating [9]: 35
- Ducksalad plant response rating [10, 22]: 45
- Ducksalad plant response rating [10, 23]: 45
- Ducksalad plant response rating [10, 24]: 75
- Plant response rating, Ducksalad [10, 25]: 90

SMILES: CCn1nc(C(C)(C)C)cc1C(=O)Nc1cccc2c1CCN(C1CC1)C2=O [Compound 64]
- Plant response rating, Foxtail, Giant [1, 11]: 30
- Plant response rating, Foxtail, Giant [1, 12]: 55
- Foxtail, Giant plant response rating [1, 13]: 40
- Foxtail, Giant plant response rating [1, 14]: 90
- Ducksalad plant response rating [2]: 90
- Plant response rating (0 = no effect, 100 = complete control), Cocklebur ([3]; 62 g ai/ha, preemergence): 0
- Plant response rating, Cocklebur [3, 15]: 0
- Plant response rating, Cocklebur [3, 16]: 0
- Cocklebur plant response rating [3, 19]: 0
- Plant response rating, Barnyardgrass [4, 11]: 30
- Plant response rating, Barnyardgrass [4, 12]: 75
- Barnyardgrass plant response rating [4, 13]: 55
- Barnyardgrass plant response rating [4, 14]: 85
- Plant response rating, Blackgrass [5]: 10
- Blackgrass plant response rating [5]: 0
- Plant response rating, Crabgrass, Large [6, 11]: 30
- Plant response rating, Crabgrass, Large [6, 12]: 60
- Crabgrass, Large plant response rating [6, 13]: 70
- Crabgrass, Large plant response rating [6, 14]: 100
- Plant response rating (0 = no effect, 100 = complete control), Corn ([7]; 62 g ai/ha, preemergence): 0
- Plant response rating, Corn [7, 15]: 0
- Plant response rating, Corn [7, 16]: 0
- Corn plant response rating [7, 19]: 30
- Plant response rating (0 = no effect, 100 = complete control), Cupgrass, Woolly ([8]; 62 g ai/ha, preemergence): 0
- Plant response rating, Cupgrass, Woolly [8, 15]: 0
- Plant response rating, Cupgrass, Woolly [8, 16]: 0
- Cupgrass, Woolly plant response rating [8, 19]: 10
- Plant response rating (0 = no effect, 100 = complete control), Sunflower [9]: 0
- Plant response rating, Sunflower [9, 21]: 0
- Sunflower plant response rating [9]: 0
- Ducksalad plant response rating [10, 22]: 0
- Ducksalad plant response rating [10, 23]: 10
- Ducksalad plant response rating [10, 24]: 25
- Plant response rating, Ducksalad [10, 25]: 40
